According to patent publication US20110124690A1, “COMPOSITIONS AND METHODS FOR TREATING CANCER OR A NEUROTROPHIC DISORDER” (priority 2007, published 2011):
Like-named read-outs stand apart in the source and are kept apart here.

Key:
[1] = system: CCRF-CEM/Taxol cells; assay: XTT microculture cytotoxicity assay, Taxol-resistant CCRF-CEM/Taxol cells; format: cell-based, human; conditions: Table 3A
Method: (§2) CCRF-CEM human T-cell acute lymphoblastic leukemia cells and the corresponding vinblastine-resistant cells (CCRF-CEM/VBL100) were cultured at an initial density of 5×10^4 cells per milliliter. The cultured cells were then maintained in a 5% CO2-humidified atmosphere at 37° C. in RPMI medium 1640 (GIBCO/BRL) containing penicillin (100 units/mL), streptomycin (100 μg/mL, GIBCO/BRL), and 10% heat-inactivated fetal bovine serum. The cytotoxicity of each Panaxytriol Compound was measured using the 2,3-bis(2-methoxy-4-nitro-5-sulfophenyl)-5-[(phenylamino)carbonyl]-2H-tetrazolium hydroxide (XTT) microculture method as described in Scudiero et al., Cancer Res., 48:4827 (1988).

[2] = system: CCRF-CEM/VBL (vinblastine-resistant) cells; assay: XTT microculture cytotoxicity assay, vinblastine-resistant CCRF-CEM/VBL cells; format: cell-based, human; conditions: for IC50: Homo sapiens, CCRF-CEM
Method: as §2

[3] = system: CCRF-CEM human T-cell acute lymphoblastic leukemia cells; assay: XTT microculture cytotoxicity assay, CCRF-CEM cells; format: cell-based
Method: as §2

[4] = system: human mammary carcinoma xenograft MX-1; assay: Therapeutic effect in nude mice bearing MX-1 xenograft; format: in vivo; conditions: slow i.v. infusion; for Tumor growth at elevated dosage levels: elevated dosages
Method: (§1) Nude mice having human mammary carcinoma xenograft MX-1 were treated with panaxytriol or Compound (A) at various dosages through the slow i.v. infusion protocol by Chou et al. (Chou, T. C., et al, Proc. Natl. Acad. Sci. U.S.A. 95: 15798 (1998)).

[5] = Body weight of treated nude mice bearing MX-1 xenograft; format: in vivo; conditions: highest dosage levels (100 mg/kg)
Method: as §1

[6] = 72 h, Table 3, XTT assay, 72-hour inhibition, vinblastine-resistant cells
[7] = 72 h, Table 3, XTT assay, 72-hour inhibition, read-out: IC50 (μM) CCRF-CEM

C=C[C@H](O)C#CC#CC[C@H]1OC(C)(C)O[C@@H]1CCCCCCC [Compound (D)]
Fold resistance, CCRF-CEM/Taxol vs parent CCRF-CEM (fold increase in IC50) [1]: [2.17-fold
Fold resistance, CCRF-CEM/VBL vs parent CCRF-CEM (fold increase in IC50) ([2]; Table 3A): [1.98-fold

C=C[C@H](C#CC#CC[C@H]1OC(C)(C)O[C@@H]1CCCCCCC)OC(=O)/C=C/c1ccccc1 [Compound (E)]
IC50 ([3]; Table 3B, read-out: IC50 (in μM) for human leukemic lymphoblastic leukemia cells CCRF-CEM): 6.51 µM

C=C[C@@H](O)C#CC#CC[C@H]1OC(C)(C)O[C@@H]1CCCCCCC [Compound A]
Tumor growth at elevated dosage levels [4]: enhanced tumor-growth suppression
Reduction in tumor mass ([4]; including elevated dosages): did not lead to a reduction in the tumor mass
Tumor growth ([4]; levels as low as 10 mg/kg, FIG. 2): inhibiting tumor growth
IC50 ([1]; Homo sapiens, CCRF-CEM, compound stored in DMSO at below approximately −20° C. for 4 years and 4 months): 17.2 µM
IC50 [2, 6]: 2.41 ± 0.05 µM
IC50 ([2]; Table 3A, compound stored in DMSO at below approximately −20° C. for 4 years and 4 months): 6.82 µM
Fold resistance, CCRF-CEM/VBL vs parent CCRF-CEM (fold increase in IC50) ([2]; Table 3A): [1.4-fold
IC50 [3, 7]: 1.98 ± 0.2 µM
IC50 ([3]; Table 3A, compound stored in DMSO at below approximately −20° C. for 4 years and 4 months, read-out: IC50 (μM) CCRF-CEM): 6.15 µM

C=CC(=O)C#CC#CC[C@@H](O)[C@H](O)CCCCCCC [Compound B]
Fold resistance (IC50 CCRF-CEM/VBL vs CCRF-CEM), in parentheses ([2]; Table 3): 1.40 x

C=CC(=O)C#CC#CC[C@H]1OC(C)(C)O[C@@H]1CCCCCCC [Compound C]
IC50 [2, 6]: 3.84 ± 0.08 µM
IC50 [3, 7]: 3.23 ± 0.78 µM

CC[C@]1(O)C[C@@H]2CN(CCc3c([nH]c4ccccc34)[C@@](C(=O)OC)(c3cc4c(cc3OC)N(C)[C@H]3[C@@](O)(C(=O)OC)[C@H](OC(C)=O)[C@]5(CC)C=CCN6CC[C@]43[C@@H]65)C2)C1 [Vinblastine, reference compound]
IC50 [2, 6]: 0.8 µM
IC50 [3, 7]: 0.002 µM

C=C[C@@H](O)C#CC#CC[C@@H](O)[C@H](O)CCCCCCC [panaxytriol]
Reduction in tumor mass ([4]; 30 mg/kg, FIG. 1): no significant reduction in tumor mass
Tumor growth ([4]; 30 mg/kg, FIG. 1): some suppression of tumor growth
Tumor growth at elevated dosage levels [4]: improved inhibitory effects
Fold resistance (IC50 CCRF-CEM/VBL vs CCRF-CEM), in parentheses ([2]; Table 3): 1.20 x
Body weight [5]: no body weight decrease
